Measured values taken from patent US20100196915A1, “Method of Detecting Oncogenesis of Hematopoietic Cells” (UNIVERSITY OF SOUTH FLORIDA, priority 2007, published 2010).

B1: IL-27: recombinant human IL-27 (R&D Systems), cytokine used to stimulate cells (protein, UniProt Q8NEV9 29-243; Q14213 21-229, looked up)
Interleukin-27 subunit alpha: FPRPPGRPQLSLQELRREFTVSLHLARKLLSEVRGQAHRFAESHLPGVNLYLLPLGEQLPDVSLTFQAWRRLSDPERLCFISTTLQPFHALLGGLGTQGRWTNMERMQLWAMRLDLRDLQRHLRFQVLAAGFNLPEEEEEEEEEEEEERKGLLPGALGSALQGPAQVSWPQLLSTYRLLHSLELVLSRAVRELLLLSKAGHSVWPLGFPTLSPQP
Interleukin-27 subunit beta: RKGPPAALTLPRVQCRASRYPIAVDCSWTLPPAPNSTSPVSFIATYRLGMAARGHSWPCLQQTPTSTSCTITDVQLFSMAPYVLNVTAVHPWGSSSSFVPFITEHIIKPDPPEGVRLSPLAERQLQVQWEPPGSWPFPEIFSLKYWIRYKRQGAARFHRVGPIEATSFILRAVRPRARYYVQVAAQDLTDYGELSDWSLPATATMSLGK

Key:
Format in all cases: cell-based
[1] = test system: 32D cells transformed with IL-27R; experiment: Cell cycle profile by flow cytometry of PI-stained cells; conditions: after 24 hr of treatment, FIG. 3(B)
Description: (§1) 32D cells were washed twice with RPMI containing 0.1% BSA and incubated in the same medium with either 0.1% DMSO, 0.5 μM or 2 μM JAK inhibitor I (EMD Biosciences/Calbiochem) for 3 hours before lysis. For cell growth and viability, cells were plated at a concentration of 2×10^5/ml in RPMI/10% FBS and either 0.1% DMSO or 0.5 μM JAK inhibitor I. Cell growth and viability were determined by trypan blue exclusion. After 24 hr of JAK inhibitor I treatment, the percentage of apoptotic cells and cell cycle profiles were determined by flow cytometry. See supporting information.
(§2) Flow Cytometry: Apoptosis and Cell Cycle Analysis. The percentage of apoptotic cells after 24 h JAK inhibitor I treatment was determined by flow cytometric analysis of annexin V-fluorescein (BD Biosciences) binding. […] Four-hundred microliters of 1× binding buffer was added to the samples and the cells were analyzed by flow cytometry. Flow cytometric analysis was performed on a FACS Scan instrument with CellQuest software (BD Biosciences) and data obtained were analyzed with FlowJo software (Tree Star). Cell cycle profiles after 24 h JAK inhibitor I treatment were determined by flow cytometric analysis of PI-stained cells. […] Stained cells were then analyzed by flow cytometry using a FACS Scan with CellQuest software and analyzed with FlowJo software (Tree Star). […]

[2] = test system: 32D cells transformed with IL-27R; experiment: Apoptosis by annexin V binding, flow cytometry; conditions: after 24 hr of treatment, FIG. 4(B)
Description: as §1, §2

[3] = test system: 32D cells transformed with IL-27R; experiment: Cell growth and viability by trypan blue exclusion, JAK inhibitor I studies
Description: as §1
The role of JAK family kinases in transformation by IL-27R was addressed by culturing 32D/IL-27R transformed cells with the pan-JAK inhibitor, JAK inhibitor I (Thompson, J. E., et al., Photochemical preparation of a pyridone containing tetracycle: a Jak protein kinase inhibitor. Bioorg. Med. Chem. Lett., 2002 Apr. 22; 12(8):1219-23). Cells transformed with IL-27R were cultured in the presence of 0.1% DMSO or 0.5 μM JAK inhibitor I on day 0. […] Cell viability, determined using trypan blue, also decreases in the presence of the inhibitor, seen in FIG. 4(A). […] Transformed 32D cells were cultured in the presence of 0.1% DMSO (lane 2), 0.5 μM (lane 3) or 2 μM (lane 4) JAK inhibitor I. Control 32D cells starved of serum/IL-3 in the presence of 0.1% DMSO for three hr is shown in lane 1. […]

JAK family kinases = experiment: Immunoblot of STAT1, STAT3, STAT5 and ERK1/2 phosphorylation induced by IL-27R; conditions: 0.5 μM or 2 μM, 3 hours, FIG. 5
Description: Cells were washed in PBS and lysed in lysis buffer (25 mM Tris pH7.4, 150 mM NaCl, 25 mM NaF, 1% Triton-X100, 1 mM sodium vanadate, 2 mM sodium pyrophosphate, 10 μg/ml leupeptin, 2 μg/ml aprotinin, and 1 mM PMSF). Protein concentrations were determined by BCA protein assay kit (Pierce Biotechnology), and equal amounts of protein were analyzed by SDS-PAGE. Primary antibodies used in this study include: IL-27R (TCCR) (C-term) (Sigma), phospho-(P-) STAT1(Y701), P-STAT3(Y705), P-JAK1(Y1022/1023), P-JAK2(Y1007/1008), P-ERK(T202/Y204), JAK1, JAK2 (Cell Signaling Technology), P-STAT5(Y694) (BD Transduction Laboratories), STAT1, STAT3, STAT5, and ERK1 (Santa Cruz Biotechnology). Immunoblots were developed using ECL Western Blotting Substrate (Pierce Biotechnology).
32D cells were washed twice with RPMI containing 0.1% BSA and incubated in the same medium with either 0.1% DMSO, 0.5 μM or 2 μM JAK inhibitor I (EMD Biosciences/Calbiochem) for 3 hours before lysis. For cell growth and viability, cells were plated at a concentration of 2×10^5/ml in RPMI/10% FBS and either 0.1% DMSO or 0.5 μM JAK inhibitor I. Cell growth and viability were determined by trypan blue exclusion. After 24 hr of JAK inhibitor I treatment, the percentage of apoptotic cells and cell cycle profiles were determined by flow cytometry. See supporting information. […]

[4] = test system: IL-27R-expressing BaF3 cells; experiment: IL-27 stimulation, P-STAT1 immunoblot; conditions: 100 ng/ml IL-27, 10 min, cells lack gp130
Description: (§3) To stimulate cell cultures with IL-27, 32D and BaF3 cells expressing IL-27R were washed of growth factors and incubated in RPMI medium 1640 containing 0.1% BSA for 3 h. Cells were left untreated or stimulated with 100 ng/ml recombinant human IL-27 (R&D Systems) for 10 min. 293T cells were transfected with IL-27R, JAK2-V617F, and gp130 siRNA as indicated and as described. Two days later, cells were stimulated with 100 ng/ml human IL-27 for the length of time indicated and washed with ice-cold PBS, and cell lysates were prepared and analyzed by immunoblotting as described.
(§4) Finally, while IL-27R-mediated transformation is gp130-independent, these observations still support the paradigm that IL-27-mediated signaling requires gp130 (Pflanz, S., et al., J. Immunol., 2004 Feb. 15; 172(4):2225-31). […] Cells were left untreated or stimulated with 100 ng/ml IL-27 for 10 min and cell lysates analyzed by immunoblotting for phosphorylated (P-) and total STAT1. IL-27-induced signaling (as measured by STAT1 phosphorylation) is not observed in IL-27R-expressing 32D or BaF3 cells, which lack gp130, but is seen in IL-27R-expressing 293T cells, which express gp130, data not shown. […] Two days later, cells were stimulated with 100 ng/ml IL-27 for the length of time indicated, and cell lysates were prepared and analyzed by immunoblotting for P-STAT1, total STAT1, and gp130. […]

[5] = test system: IL-27R-expressing 32D cells; experiment: IL-27 stimulation, P-STAT1 immunoblot; conditions: 100 ng/ml IL-27, 10 min, cells lack gp130
Description: as §3, §4

[6] = test system: IL-27R-expressing 293T cells; experiment: IL-27 stimulation and gp130 siRNA depletion, P-STAT1 immunoblot
Description: as §3, §4

Molecule | cell cycle arrest [1] | number of cells in S-phase [1] | apoptosis (annexin V binding) [2] | cell growth ([3]; 0.5 μM JAK inhibitor I vs 0.1% DMSO, from day 0, FIG. 3(A)) | cell viability ([3]; 0.5 μM JAK inhibitor I, trypan blue, FIG. 4(A)) | ERK1/2 activation (JAK family kinases) | STAT1, -3 and -5 phosphorylation induced by IL-27R (JAK family kinases) | IL-27-induced signaling (STAT1 phosphorylation) [4] | IL-27-induced signaling (STAT1 phosphorylation) [5] | IL-27R/JAK2-V617F-mediated activation of STAT1 ([6]; 100 ng/ml IL-27, 293T cells transfected with IL-27R and JAK2-V617F) | IL-27-induced signaling (STAT1 phosphorylation) ([6]; 100 ng/ml IL-27, cells express gp130)
JAK inhibitor I | induces a G1 as well as a G2 cell cycle arrest | dramatic decrease | induction of apoptosis | the growth of these cells ceases | decreases | prevents | blocks | – | – | – | –
B1 | – | – | – | – | – | – | – | not observed | not observed | not enhanced | is seen
